Values after ≈ are worked out from the molar mass of the structure shown.

The text below walks through data of patent publication US8906904B2, “Alkoxy pyrazoles as soluble guanylate cyclase activators” (Boehringer Ingelheim International GmbH, priority 2012, dated 2014).

The first data set deals with T1, human soluble guanylate cyclase alpha 1 and beta 1 subunits (sGC) (Homo sapiens, UniProt Q02108+Q02153).
T1 construct: expressed in transfected cells; host or cells: Chinese hamster ovary (CHO) cells, stably transfected
T1 sequence (Q02108 1-690): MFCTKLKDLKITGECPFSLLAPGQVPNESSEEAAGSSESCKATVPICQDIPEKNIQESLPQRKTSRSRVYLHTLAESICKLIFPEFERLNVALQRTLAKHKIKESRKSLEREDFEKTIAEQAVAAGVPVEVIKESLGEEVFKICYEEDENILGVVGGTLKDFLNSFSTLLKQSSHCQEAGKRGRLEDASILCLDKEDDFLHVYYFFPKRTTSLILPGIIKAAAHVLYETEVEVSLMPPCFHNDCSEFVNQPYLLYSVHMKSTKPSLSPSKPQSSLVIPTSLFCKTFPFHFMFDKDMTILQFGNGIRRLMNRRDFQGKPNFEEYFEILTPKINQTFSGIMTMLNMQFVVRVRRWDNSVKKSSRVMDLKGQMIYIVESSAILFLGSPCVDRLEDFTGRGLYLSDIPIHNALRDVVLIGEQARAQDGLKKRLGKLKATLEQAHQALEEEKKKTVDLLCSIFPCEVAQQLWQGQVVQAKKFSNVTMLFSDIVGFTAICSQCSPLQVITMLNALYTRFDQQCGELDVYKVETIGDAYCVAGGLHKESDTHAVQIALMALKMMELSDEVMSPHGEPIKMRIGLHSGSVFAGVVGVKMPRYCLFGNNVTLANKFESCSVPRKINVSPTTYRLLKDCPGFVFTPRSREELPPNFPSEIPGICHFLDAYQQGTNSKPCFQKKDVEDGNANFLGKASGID
T1 sequence (Q02153 1-619): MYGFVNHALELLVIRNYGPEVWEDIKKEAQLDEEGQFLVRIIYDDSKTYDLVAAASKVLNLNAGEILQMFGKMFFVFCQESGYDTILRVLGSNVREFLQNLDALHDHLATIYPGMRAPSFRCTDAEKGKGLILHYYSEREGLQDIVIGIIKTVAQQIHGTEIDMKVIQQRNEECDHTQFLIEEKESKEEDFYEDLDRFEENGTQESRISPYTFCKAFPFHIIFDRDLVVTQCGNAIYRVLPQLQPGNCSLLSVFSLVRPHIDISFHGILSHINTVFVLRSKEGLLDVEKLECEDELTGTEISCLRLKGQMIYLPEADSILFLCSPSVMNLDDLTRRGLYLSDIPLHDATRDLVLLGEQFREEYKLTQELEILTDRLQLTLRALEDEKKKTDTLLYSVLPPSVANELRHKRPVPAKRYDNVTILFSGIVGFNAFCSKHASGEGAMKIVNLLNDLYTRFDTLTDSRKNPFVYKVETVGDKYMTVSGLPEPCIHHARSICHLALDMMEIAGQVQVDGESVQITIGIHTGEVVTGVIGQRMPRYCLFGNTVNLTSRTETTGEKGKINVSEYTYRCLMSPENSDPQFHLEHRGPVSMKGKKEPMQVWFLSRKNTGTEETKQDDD
Briefly: sGC cellular activator assay (cGMP, HTRF). Particulars: CHO cells stably expressing human sGC alpha 1/beta 1, preincubated with 40 microM ODQ; cGMP readout; assay run with and without 50% human serum, Table 2 does not say which. Format: cell-based. In outline: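 Heme-oxidized conditions: ODQ (40 microM, 1 h) pretreatment of CHO cells stably expressing human α1/β1 sGC, in buffer containing 0.1% BSA and IBMX.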
A general note: TR-FRET usually uses a lanthanide donor and a delayed reading to cut background.
A word on the EC50: it is the concentration at which the effect is half-maximal. `COc1c(C(=O)O)cnn1-c1cccc(-c2cccc(C)c2OCc2ccc3c(c2)CCN(CCS(C)(=O)=O)C3)n1` [Compound 74]: the EC50 turned out to be 73 nM.
`COc1c(C(=O)O)cnn1-c1cccc(-c2cccc(C)c2OCc2ccc3c(c2)CCN(C2C4CCOC4C2(C)C)C3)n1` (stereo not shown) [Compound 75]: a half-maximal response (EC50) required 23 nM.
For `CCOc1c(C(=O)O)cnn1-c1cccc(-c2cccc(C)c2OCc2ccc3c(c2)CCN(C2CCOCC2)C3)n1` [Compound 77], a half-maximal effect (EC50) was put at 31 nM.
In turn, `CCOc1c(C(=O)O)cnn1-c1cccc(-c2cccc(C)c2OCc2ccc3c(c2)CCN(C2CCOC(C)C2)C3)n1` (stereo not shown) [Compound 78] had an EC50 of 48 nM.
On the same count and under the same terms, next, `CCOc1c(C(=O)O)cnn1-c1cccc(-c2cccc(C)c2OCc2ccc3c(c2)CCN(C2CCOC(CC)C2)C3)n1` (stereo not shown) [Compound 79]: 33 nM; `CCOc1c(C(=O)O)cnn1-c1cccc(-c2cccc(C)c2OCc2ccc3c(c2)CCN(CC2CCOC(C)(C)C2)C3)n1` (stereo not shown) [Compound 80]: 45 nM.
Turning to `COc1c(C(=O)O)cnn1-c1cccc(-c2cccc(C)c2OCc2ccc3c(c2)CCN(C2CCOCC2OC)C3)n1` (stereo not shown) [Compound 81], the response was half-maximal at 410 nM (EC50). Compared with the last molecule, the EC50 is about 9.1-fold higher.
The same measure, in the same setting: next, `COc1c(C(=O)O)cnn1-c1cccc(-c2cccc(C)c2OCc2ccc3c(c2)CN(CC2CC(F)(F)C2)C3)n1` [Compound 82]: 8 nM; `COc1c(C(=O)O)cnn1-c1cccc(-c2cccc(C(F)(F)F)c2OCc2ccc3c(c2)CCN(C2CCOCC2)C3)n1` [Compound 83]: 29 nM.
As to `COc1c(C(=O)O)cnn1-c1cccc(-c2cccc(C(F)(F)F)c2OCc2ccc3c(c2C)CCN(C2CCOCC2)C3)n1` [Compound 84], the EC50 worked out at 9 nM.

Test system in the next data set: not listed separately
Briefly: Assessment of solubility (McIlvaine buffers, 24 h shake, UPLC-UV). Format: physicochemical. Particulars: pH 2.2, aqueous buffer, kinetic from dmso stock. A digest of the protocol:
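Compounds from 10 mM DMSO stocks were shaken for 24 h at room temperature in McIlvaine buffers at pH 2.2, 4.5 and 6.8 (2.5% v/v DMSO final), then filtered. Filtrates were quantified by UPLC-UV at 254 nm against a 50:50 acetonitrile/water reference assumed fully dissolved, as a single determination.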
As usually defined, the solubility is the dissolved amount per volume that the medium holds. Higher therefore signals much dissolved substance. `COc1c(C(=O)O)cnn1-c1cccc(-c2cccc(C)c2OCc2ccc3c(c2)CCN(CCS(C)(=O)=O)C3)n1` [Compound 74] gave a solubility at 24 h of 110 µg/mL (≈ 191 µM).
Turning to `COc1c(C(=O)O)cnn1-c1cccc(-c2cccc(C)c2OCc2ccc3c(c2)CCN(C2C4CCOC4C2(C)C)C3)n1` (stereo not shown) [Compound 75], the solubility at 24 h was 120 µg/mL (≈ 202 µM). The solubility at 24 h values of the last two molecules are within 1.5-fold of each other.
Same read-out and setting: next, `CCOc1c(C(=O)O)cnn1-c1cccc(-c2cccc(C)c2OCc2ccc3c(c2)CCN(C2CCOCC2)C3)n1` [Compound 77]: 96 µg/mL (≈ 169 µM); `CCOc1c(C(=O)O)cnn1-c1cccc(-c2cccc(C)c2OCc2ccc3c(c2)CCN(C2CCOC(C)C2)C3)n1` (stereo not shown) [Compound 78]: 100 µg/mL (≈ 172 µM); `CCOc1c(C(=O)O)cnn1-c1cccc(-c2cccc(C)c2OCc2ccc3c(c2)CCN(C2CCOC(CC)C2)C3)n1` (stereo not shown) [Compound 79]: 100 µg/mL (≈ 168 µM).
Consider `CCOc1c(C(=O)O)cnn1-c1cccc(-c2cccc(C)c2OCc2ccc3c(c2)CCN(CC2CCOC(C)(C)C2)C3)n1` (stereo not shown) [Compound 80], for which the solubility at 24 h worked out at 110 µg/mL (≈ 180 µM). The solubility at 24 h values of the last two molecules are within 1.5-fold of each other.
`COc1c(C(=O)O)cnn1-c1cccc(-c2cccc(C)c2OCc2ccc3c(c2)CCN(C2CCOCC2OC)C3)n1` (stereo not shown) [Compound 81]: the concentration in solution (solubility at 24 h) came to 100 µg/mL (≈ 171 µM).
Take `COc1c(C(=O)O)cnn1-c1cccc(-c2cccc(C)c2OCc2ccc3c(c2)CN(CC2CC(F)(F)C2)C3)n1` [Compound 82]: the solubility at 24 h is 120 µg/mL (≈ 214 µM).
The molecule `COc1c(C(=O)O)cnn1-c1cccc(-c2cccc(C(F)(F)F)c2OCc2ccc3c(c2)CCN(C2CCOCC2)C3)n1` [Compound 83] yielded a solubility at 24 h of 110 µg/mL (≈ 181 µM). The solubility at 24 h values of the last two molecules are within 1.5-fold of each other.
In the case of `COc1c(C(=O)O)cnn1-c1cccc(-c2cccc(C(F)(F)F)c2OCc2ccc3c(c2C)CCN(C2CCOCC2)C3)n1` [Compound 84], the solubility at 24 h turned out to be 110 µg/mL (≈ 177 µM).

The data set is the same for the next values; noted with them: pH 4.5, aqueous buffer, kinetic from dmso stock.
In turn, `COc1c(C(=O)O)cnn1-c1cccc(-c2cccc(C)c2OCc2ccc3c(c2)CCN(CCS(C)(=O)=O)C3)n1` [Compound 74] came in with a solubility at 24 h of 83 µg/mL (≈ 144 µM).
In turn, `COc1c(C(=O)O)cnn1-c1cccc(-c2cccc(C)c2OCc2ccc3c(c2)CCN(C2C4CCOC4C2(C)C)C3)n1` (stereo not shown) [Compound 75] showed a solubility at 24 h of 93 µg/mL (≈ 156 µM).
The same measure, in the same setting: next, `CCOc1c(C(=O)O)cnn1-c1cccc(-c2cccc(C)c2OCc2ccc3c(c2)CCN(C2CCOCC2)C3)n1` [Compound 77]: 83 µg/mL (≈ 146 µM).
For the molecule `CCOc1c(C(=O)O)cnn1-c1cccc(-c2cccc(C)c2OCc2ccc3c(c2)CCN(C2CCOC(C)C2)C3)n1` (stereo not shown) [Compound 78], the solubility at 24 h was 86 µg/mL (≈ 148 µM). The solubility at 24 h values of the last two molecules are within 1.5-fold of each other.
For `CCOc1c(C(=O)O)cnn1-c1cccc(-c2cccc(C)c2OCc2ccc3c(c2)CCN(C2CCOC(CC)C2)C3)n1` (stereo not shown) [Compound 79], the solubility at 24 h came to 87 µg/mL (≈ 146 µM).
In turn, `CCOc1c(C(=O)O)cnn1-c1cccc(-c2cccc(C)c2OCc2ccc3c(c2)CCN(CC2CCOC(C)(C)C2)C3)n1` (stereo not shown) [Compound 80] gave a solubility at 24 h of 94 µg/mL (≈ 154 µM). This solubility at 24 h and that of the molecule before are within 1.5-fold of each other.
On the same count and under the same terms, next, `COc1c(C(=O)O)cnn1-c1cccc(-c2cccc(C)c2OCc2ccc3c(c2)CCN(C2CCOCC2OC)C3)n1` (stereo not shown) [Compound 81]: 84 µg/mL (≈ 144 µM); `COc1c(C(=O)O)cnn1-c1cccc(-c2cccc(C)c2OCc2ccc3c(c2)CN(CC2CC(F)(F)C2)C3)n1` [Compound 82]: 100 µg/mL (≈ 178 µM); `COc1c(C(=O)O)cnn1-c1cccc(-c2cccc(C(F)(F)F)c2OCc2ccc3c(c2)CCN(C2CCOCC2)C3)n1` [Compound 83]: 88 µg/mL (≈ 145 µM).
In the case of `COc1c(C(=O)O)cnn1-c1cccc(-c2cccc(C(F)(F)F)c2OCc2ccc3c(c2C)CCN(C2CCOCC2)C3)n1` [Compound 84], the concentration in solution (solubility at 24 h) came to 86 µg/mL (≈ 138 µM).

The data set is the same for the next values; noted with them: pH 6.8, aqueous buffer, kinetic from dmso stock.
For `COc1c(C(=O)O)cnn1-c1cccc(-c2cccc(C)c2OCc2ccc3c(c2)CCN(CCS(C)(=O)=O)C3)n1` [Compound 74], the solubility at 24 h was 95 µg/mL (≈ 165 µM).
In turn, `COc1c(C(=O)O)cnn1-c1cccc(-c2cccc(C)c2OCc2ccc3c(c2)CCN(C2C4CCOC4C2(C)C)C3)n1` (stereo not shown) [Compound 75] displayed a solubility at 24 h of 90 µg/mL (≈ 151 µM). The solubility at 24 h values of the last two molecules are within 1.5-fold of each other.
Turning to `CCOc1c(C(=O)O)cnn1-c1cccc(-c2cccc(C)c2OCc2ccc3c(c2)CCN(C2CCOCC2)C3)n1` [Compound 77], the solubility at 24 h came out at 87 µg/mL (≈ 153 µM).
The same measure, in the same setting: next, `CCOc1c(C(=O)O)cnn1-c1cccc(-c2cccc(C)c2OCc2ccc3c(c2)CCN(C2CCOC(C)C2)C3)n1` (stereo not shown) [Compound 78]: 89 µg/mL (≈ 153 µM); `CCOc1c(C(=O)O)cnn1-c1cccc(-c2cccc(C)c2OCc2ccc3c(c2)CCN(C2CCOC(CC)C2)C3)n1` (stereo not shown) [Compound 79]: 89 µg/mL (≈ 149 µM).
Same read-out and setting: next, `CCOc1c(C(=O)O)cnn1-c1cccc(-c2cccc(C)c2OCc2ccc3c(c2)CCN(CC2CCOC(C)(C)C2)C3)n1` (stereo not shown) [Compound 80]: 95 µg/mL (≈ 156 µM).
Regarding `COc1c(C(=O)O)cnn1-c1cccc(-c2cccc(C)c2OCc2ccc3c(c2)CCN(C2CCOCC2OC)C3)n1` (stereo not shown) [Compound 81], the concentration in solution (solubility at 24 h) came to 79 µg/mL (≈ 135 µM). This solubility at 24 h and that of the molecule before are within 1.5-fold of each other.
On to `COc1c(C(=O)O)cnn1-c1cccc(-c2cccc(C)c2OCc2ccc3c(c2)CN(CC2CC(F)(F)C2)C3)n1` [Compound 82], for which the solubility at 24 h was 97 µg/mL (≈ 173 µM).
For `COc1c(C(=O)O)cnn1-c1cccc(-c2cccc(C(F)(F)F)c2OCc2ccc3c(c2)CCN(C2CCOCC2)C3)n1` [Compound 83], the concentration in solution (solubility at 24 h) was 95 µg/mL (≈ 156 µM).
For `COc1c(C(=O)O)cnn1-c1cccc(-c2cccc(C(F)(F)F)c2OCc2ccc3c(c2C)CCN(C2CCOCC2)C3)n1` [Compound 84], the solubility at 24 h was 89 µg/mL (≈ 143 µM).
